Reference: PubChem BioAssay AID248 (DTP/NCI, 2004)
Values joined by “and” are separate entries in the source; they are usually repeats but may differ in a detail not shown here. Identical values can stand only once. Inconclusive results and toxic doses are left out.

Test system: L1210 leukemia ip in BDF1 mice, survival T/C
Assay: NCI In Vivo Anticancer Drug Screen. Data for tumor model L1210 Leukemia (intraperitoneal) in B6D2F1 (BDF1) mice
Details: endpoint: mean survival time, higher = longer survival
Method in brief: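 Survival endpoint. Drug-treated group vs vehicle group, expressed as T divided by C. Tumor passaged by transplantation.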

[1] = dose: 100.0 mg/kg/injection, schedule: Q04DX003 (ip), vehicle: saline
[2] = dose: 200.0 mg/kg/injection, schedule: Q01DX001 (ip), vehicle: saline
[3] = dose: 100.0 mg/kg/injection, schedule: Q01DX001 (ip), vehicle: carboxymethylcellulose (CMC)
[4] = dose: 200.0 mg/kg/injection, schedule: Q01DX001 (ip), vehicle: carboxymethylcellulose (CMC)
[5] = dose: 400.0 mg/kg/injection, schedule: Q01DX001 (ip), vehicle: carboxymethylcellulose (CMC)
[6] = dose: 25.0 mg/kg/injection, schedule: Q01DX009 (ip), vehicle: Klucel (hydroxypropylcellulose) (HPC)
[7] = dose: 50.0 mg/kg/injection, schedule: Q01DX009 (ip), vehicle: Klucel (hydroxypropylcellulose) (HPC)
[8] = dose: 100.0 mg/kg/injection, schedule: Q01DX009 (ip), vehicle: Klucel (hydroxypropylcellulose) (HPC)
[9] = dose: 200.0 mg/kg/injection, schedule: Q01DX009 (ip), vehicle: Klucel (hydroxypropylcellulose) (HPC)
[10] = dose: 400.0 mg/kg/injection, schedule: Q01DX009 (ip), vehicle: Klucel (hydroxypropylcellulose) (HPC)
[11] = dose: 200.0 mg/kg/injection, schedule: Q04DX003 (ip), vehicle: saline
[12] = dose: 3.0 mg/kg/injection, schedule: Q01DX Z (ip), vehicle: carboxymethylcellulose (CMC)

## CS(=O)(=O)OCCC(=O)N1CCN(C(=O)CCOS(C)(=O)=O)CC1
dose: 6.3 mg/kg/injection, schedule: Q01DX001 (ip), vehicle: carboxymethylcellulose (CMC)
  T/C: 100 % of control and 105 % of control
dose: 9.7 mg/kg/injection, schedule: Q01DX Z (ip), vehicle: methylcellulose (MC)
  T/C: 106 % of control
dose: 12.5 mg/kg/injection, schedule: Q01DX001 (ip), vehicle: carboxymethylcellulose (CMC)
  T/C: 103 % of control and 122 % of control
dose: 14.7 mg/kg/injection, schedule: Q01DX Z (ip), vehicle: methylcellulose (MC)
  T/C: 104 % of control
dose: 16.0 mg/kg/injection, schedule: Q01DX002 (ip), vehicle: saline
  T/C: 115 % of control
dose: 22.0 mg/kg/injection, schedule: Q01DX Z (ip), vehicle: methylcellulose (MC)
  T/C: 110 % of control and 112 % of control
dose: 25.0 mg/kg/injection, schedule: Q01DX001 (ip), vehicle: carboxymethylcellulose (CMC)
  T/C: 112 % of control and 115 % of control
dose: 25.0 mg/kg/injection, schedule: Q04DX003 (ip), vehicle: saline
  T/C: 108 % of control
dose: 31.0 mg/kg/injection, schedule: Q01DX002 (ip), vehicle: saline
  T/C: 105 % of control and 115 % of control
dose: 31.25 mg/kg/injection, schedule: Q01DX Z (ip), vehicle: methylcellulose (MC)
  T/C: 156 % of control
dose: 33.5 mg/kg/injection, schedule: Q01DX Z (ip), vehicle: methylcellulose (MC)
  T/C: 150 % of control
dose: 50.0 mg/kg/injection, schedule: Q01DX001 (ip), vehicle: saline
  T/C: 121 % of control
dose: 50.0 mg/kg/injection, schedule: Q04DX003 (ip), vehicle: saline
  T/C: 123 % of control
dose: 62.5 mg/kg/injection, schedule: Q01DX Z (ip), vehicle: methylcellulose (MC)
  T/C: 176 % of control
dose: 75.0 mg/kg/injection, schedule: Q01DX Z (ip), vehicle: methylcellulose (MC)
  T/C: 162 % of control
dose: 76.0 mg/kg/injection, schedule: Q01DX Z (ip), vehicle: methylcellulose (MC)
  T/C: 218 % of control
[1]
  T/C: 153 % of control and 195 % of control
dose: 170.0 mg/kg/injection, schedule: Q01DX Z (ip), vehicle: methylcellulose (MC)
  T/C: 103 % of control and 115 % of control
[2]
  T/C: 167 % of control
dose: 225.0 mg/kg/injection, schedule: Q01DX Z (ip), vehicle: methylcellulose (MC)
  T/C: 93 % of control
dose: 250.0 mg/kg/injection, schedule: Q01DX002 (ip), vehicle: saline
  T/C: 205 % of control and 240 % of control
dose: 400.0 mg/kg/injection, schedule: Q01DX001 (ip), vehicle: saline
  T/C: 213 % of control

## Nc1ccc2c(c1)Cc1cc(N)c(Br)cc1-2
[3]
  T/C: 105 % of control
[4]
  T/C: 109 % of control
[5]
  T/C: 94 % of control

## O=[N+]([O-])c1ccc2[nH]c(=S)sc2c1
[6]
  T/C: 95 % of control
[7]
  T/C: 95 % of control

## Cc1cccc(Cl)c1NC(=O)Nc1cc([N+](=O)[O-])ccc1O
[6]
  T/C: 91 % of control
[7]
  T/C: 91 % of control
[8]
  T/C: 96 % of control and 87 % of control
[9]
  T/C: 91 % of control
[10]
  T/C: 88 % of control

## C=C(C)CC#N
[1]
  T/C: 104 % of control
[11]
  T/C: 109 % of control

## Nc1cc(Cl)c(N)c(N)n1
dose: 100.0 mg/kg/injection, schedule: Q01DX001 (ip), vehicle: saline with Tween-80
  T/C: 94 % of control
dose: 200.0 mg/kg/injection, schedule: Q01DX001 (ip), vehicle: saline with Tween-80
  T/C: 109 % of control
dose: 400.0 mg/kg/injection, schedule: Q01DX001 (ip), vehicle: saline with Tween-80
  T/C: 108 % of control

## NC(=O)c1ccc(NC(=O)CCC(=O)Nc2ccc(C(N)=O)cn2)nc1
dose: 0.36 mg/kg/injection, schedule: Q01DX Z (ip), vehicle: carboxymethylcellulose (CMC)
  T/C: 105 % of control
dose: 0.55 mg/kg/injection, schedule: Q01DX Z (ip), vehicle: carboxymethylcellulose (CMC)
  T/C: 102 % of control
dose: 0.83 mg/kg/injection, schedule: Q01DX Z (ip), vehicle: carboxymethylcellulose (CMC)
  T/C: 102 % of control
dose: 1.0 mg/kg/injection, schedule: Q01DX Z (ip), vehicle: carboxymethylcellulose (CMC)
  T/C: 105 % of control
dose: 1.25 mg/kg/injection, schedule: Q01DX Z (ip), vehicle: carboxymethylcellulose (CMC)
  T/C: 103 % of control and 114 % of control
dose: 2.0 mg/kg/injection, schedule: Q01DX Z (ip), vehicle: carboxymethylcellulose (CMC)
  T/C: 107 % of control
dose: 2.5 mg/kg/injection, schedule: Q01DX Z (ip), vehicle: carboxymethylcellulose (CMC)
  T/C: 110 % of control
[12]
  T/C: 95 % of control
dose: 4.0 mg/kg/injection, schedule: Q01DX Z (ip), vehicle: carboxymethylcellulose (CMC)
  T/C: 104 % of control
dose: 5.0 mg/kg/injection, schedule: Q01DX Z (ip), vehicle: carboxymethylcellulose (CMC)
  T/C: 124 % of control and 91 % of control
dose: 10.0 mg/kg/injection, schedule: Q01DX Z (ip), vehicle: carboxymethylcellulose (CMC)
  T/C: 118 % of control

## CC/C(=C\c1cccc([N+](=O)[O-])c1)C(=O)O
[8]
  T/C: 97 % of control
dose: 100.0 mg/kg/injection, schedule: Q04DX003 (ip), vehicle: Klucel (hydroxypropylcellulose) (HPC)
  T/C: 96 % of control
[9]
  T/C: 92 % of control
dose: 200.0 mg/kg/injection, schedule: Q04DX003 (ip), vehicle: Klucel (hydroxypropylcellulose) (HPC)
  T/C: 95 % of control
[10]
  T/C: 100 % of control
dose: 400.0 mg/kg/injection, schedule: Q04DX003 (ip), vehicle: Klucel (hydroxypropylcellulose) (HPC)
  T/C: 95 % of control

## O=C(c1ccccc1)N1CCN(C(=O)c2ccccc2)C1
[8]
  T/C: 91 % of control
[9]
  T/C: 98 % of control
[10]
  T/C: 104 % of control

## CCOC(=O)C1(C#N)C(=O)CSC1=Nc1ccccc1Cl (stereo unspecified)
dose: 100.0 mg/kg/injection, schedule: Q04DX002 (ip), vehicle: saline with Tween-80
  T/C: 95 % of control
dose: 200.0 mg/kg/injection, schedule: Q04DX002 (ip), vehicle: saline with Tween-80
  T/C: 102 % of control
dose: 400.0 mg/kg/injection, schedule: Q04DX002 (ip), vehicle: saline with Tween-80
  T/C: 95 % of control

## Cc1ccc(CC(=S)N2CCOCC2)cc1
dose: 100.0 mg/kg/injection, schedule: Q01DX001 (ip), vehicle: steriod suspending solution
  T/C: 95 % of control
dose: 200.0 mg/kg/injection, schedule: Q01DX001 (ip), vehicle: steriod suspending solution
  T/C: 98 % of control
dose: 400.0 mg/kg/injection, schedule: Q01DX001 (ip), vehicle: steriod suspending solution
  T/C: 96 % of control

## Cc1ccc(S(=O)(=O)NNC(=O)c2cc(C)c(C)cc2NCC(O)C(O)C(O)CO)cc1 (stereo unspecified)
[3]
  T/C: 93 % of control
[4]
  T/C: 98 % of control
[5]
  T/C: 89 % of control

## CNS(=O)(=O)c1ncnc2nc[nH]c12
[12]
  T/C: 113 % of control
dose: 6.0 mg/kg/injection, schedule: Q01DX Z (ip), vehicle: carboxymethylcellulose (CMC)
  T/C: 115 % of control
dose: 12.0 mg/kg/injection, schedule: Q01DX Z (ip), vehicle: carboxymethylcellulose (CMC)
  T/C: 119 % of control
dose: 22.0 mg/kg/injection, schedule: Q01DX Z (ip), vehicle: carboxymethylcellulose (CMC)
  T/C: 100 % of control
dose: 25.0 mg/kg/injection, schedule: Q01DX Z (ip), vehicle: carboxymethylcellulose (CMC)
  T/C: 117 % of control
dose: 33.0 mg/kg/injection, schedule: Q01DX Z (ip), vehicle: carboxymethylcellulose (CMC)
  T/C: 100 % of control
dose: 50.0 mg/kg/injection, schedule: Q01DX009 (ip), vehicle: saline with Tween-80
  T/C: 115 % of control
dose: 50.0 mg/kg/injection, schedule: Q01DX Z (ip), vehicle: carboxymethylcellulose (CMC)
  T/C: 121 % of control
dose: 75.0 mg/kg/injection, schedule: Q01DX Z (ip), vehicle: carboxymethylcellulose (CMC)
  T/C: 121 % of control
dose: 100.0 mg/kg/injection, schedule: Q01DX001 (ip), vehicle: acetone
  T/C: 100 % of control
dose: 132.0 mg/kg/injection, schedule: Q01DX001 (ip), vehicle: saline
  T/C: 112 % of control and 88 % of control
dose: 132.0 mg/kg/injection, schedule: Q01DX009 (ip), vehicle: saline with Tween-80
  T/C: 112 % of control
dose: 132.0 mg/kg/injection, schedule: Q01DX009 (ip), vehicle: saline
  T/C: 110 % of control
dose: 132.0 mg/kg/injection, schedule: Q04DX003 (ip), vehicle: saline
  T/C: 121 % of control
dose: 200.0 mg/kg/injection, schedule: Q01DX001 (ip), vehicle: acetone
  T/C: 182 % of control
[2]
  T/C: 103 % of control and 108 % of control
dose: 200.0 mg/kg/injection, schedule: Q01DX009 (ip), vehicle: saline with Tween-80
  T/C: 162 % of control
[11]
  T/C: 122 % of control
dose: 300.0 mg/kg/injection, schedule: Q01DX001 (ip), vehicle: saline
  T/C: 101 % of control and 103 % of control
dose: 300.0 mg/kg/injection, schedule: Q01DX009 (ip), vehicle: saline
  T/C: 117 % of control
